Source: patent US10597388B2, “Pyridazinone herbicides” (FMC CORPORATION, priority 2014, dated 2020)
Where two headings read alike, the source gives them in different places.

What was measured:
Experiment in all cases: Test A greenhouse herbicide test, pre- and postemergence
Assay type in all cases: in vivo
[1] = tested on: barnyardgrass (Echinochloa crus-galli); conditions: Echinochloa crus-galli, 240 h; for pest or weed control at 125 g/ha: 125 g ai/ha; for pest or weed control at 500 g/ha: 500 g ai/ha, 0 to 100 scale
Procedure, shortened: (§1)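 Seeds in loam–sand blend received a preemergence directed soil spray; plants at 2–10 cm, one- to two-leaf stage, received postemergence sprays. Compounds in a non-phytotoxic solvent with surfactant. After about 10 d in a greenhouse, injury rated visually versus untreated controls on a 0–100 scale (100 = complete control).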

corn (Zea mays) = conditions: Zea mays, 240 h; for Corn plant response rating (crop injury, 0 = no effect, 100 = complete kill) at 125 g/ha / plant injury at 500 g/ha: post-emergence, Postemergence; for Corn plant response rating (crop injury, 0 = no effect, 100 = complete kill) at 125 g/ha: visual rating after approx. 10 d, 0 to 100 scale (0 no effect, 100 complete control); for plant injury at 500 g/ha: 0 is no effect, 100 is complete control
Procedure, shortened: as §1

[2] = tested on: foxtail, giant (giant foxtail, Setaria faberii); conditions: Setaria faberi, 240 h; for pest or weed control at 125 g/ha: 125 g ai/ha; for pest or weed control at 500 g/ha: 500 g ai/ha, 0 to 100 scale
Procedure, shortened: as §1

kochia (Kochia scoparia) = conditions: Bassia scoparia, 240 h; for pest or weed control at 125 g/ha: 125 g ai/ha; for pest or weed control at 500 g/ha: 500 g ai/ha, 0 to 100 scale
Procedure, shortened: as §1

[3] = tested on: pigweed (Amaranthus retroflexus); conditions: Amaranthus retroflexus, 240 h; for pest or weed control at 125 g/ha: 125 g ai/ha; for pest or weed control at 500 g/ha: 500 g ai/ha, 0 to 100 scale
Procedure, shortened: as §1

[4] = tested on: ragweed (common ragweed, Ambrosia elatior); conditions: Ambrosia artemisiifolia, 240 h; for pest or weed control at 125 g/ha: 125 g ai/ha; for pest or weed control at 500 g/ha: 500 g ai/ha, 0 to 100 scale
Procedure, shortened: as §1

[5] = tested on: ryegrass, Italian (Italian ryegrass, Lolium multiflorum); conditions: Lolium multiflorum, 240 h; for pest or weed control at 125 g/ha: 125 g ai/ha; for pest or weed control at 500 g/ha: 500 g ai/ha, 0 to 100 scale
Procedure, shortened: as §1

[6] = tested on: wheat (Triticum aestivum); conditions: Triticum aestivum, 240 h; for plant injury at 125 g/ha: 125 g ai/ha; for plant injury at 500 g/ha: 500 g ai/ha, 0 to 100 scale
Procedure, shortened: as §1

[7] = post-emergence, Postemergence, visual rating after approx. 10 d, 0 to 100 scale (0 no effect, 100 complete control), read-out: Plant response rating, Barnyardgrass
[8] = post-emergence, Postemergence, 0 is no effect, 100 is complete control, read-out: Barnyardgrass plant response rating
[9] = pre-emergence, Preemergence, 0 to 100 scale where 0 is no effect and 100 is complete control, read-out: Barnyardgrass plant response rating
[10] = pre-emergence, Preemergence, 0 no effect, 100 complete control, read-out: Plant response rating, Barnyardgrass
[11] = 500 g ai/ha, 0 to 100 scale, read-out: Corn plant response rating
[12] = post-emergence, Postemergence, visual rating after approx. 10 d, 0 to 100 scale (0 no effect, 100 complete control), read-out: Plant response rating, Foxtail, Giant
[13] = post-emergence, Postemergence, 0 is no effect, 100 is complete control, read-out: Foxtail, Giant plant response rating
[14] = pre-emergence, Preemergence, 0 to 100 scale where 0 is no effect and 100 is complete control, read-out: Foxtail, Giant plant response rating
[15] = pre-emergence, Preemergence, 0 no effect, 100 complete control, read-out: Plant response rating, Foxtail, Giant
[16] = post-emergence, Postemergence, visual rating after approx. 10 d, 0 to 100 scale (0 no effect, 100 complete control), read-out: Plant response rating, Kochia
[17] = post-emergence, Postemergence, 0 is no effect, 100 is complete control, read-out: Kochia plant response rating
[18] = pre-emergence, Preemergence, 0 to 100 scale where 0 is no effect and 100 is complete control, read-out: Kochia plant response rating
[19] = pre-emergence, Preemergence, 0 no effect, 100 complete control, read-out: Plant response rating, Kochia
[20] = post-emergence, Postemergence, visual rating after approx. 10 d, 0 to 100 scale (0 no effect, 100 complete control), read-out: Plant response rating, Pigweed
[21] = post-emergence, Postemergence, 0 is no effect, 100 is complete control, read-out: Pigweed plant response rating
[22] = pre-emergence, Preemergence, 0 to 100 scale where 0 is no effect and 100 is complete control, read-out: Pigweed plant response rating
[23] = pre-emergence, Preemergence, 0 no effect, 100 complete control, read-out: Plant response rating, Pigweed
[24] = post-emergence, Postemergence, visual rating after approx. 10 d, 0 to 100 scale (0 no effect, 100 complete control), read-out: Plant response rating, Ragweed
[25] = post-emergence, Postemergence, 0 is no effect, 100 is complete control, read-out: Ragweed plant response rating
[26] = pre-emergence, Preemergence, 0 to 100 scale where 0 is no effect and 100 is complete control, read-out: Ragweed plant response rating
[27] = pre-emergence, Preemergence, 0 no effect, 100 complete control, read-out: Plant response rating, Ragweed
[28] = post-emergence, Postemergence, visual rating after approx. 10 d, 0 to 100 scale (0 no effect, 100 complete control), read-out: Plant response rating, Ryegrass, Italian
[29] = post-emergence, Postemergence, 0 is no effect, 100 is complete control, read-out: Ryegrass, Italian plant response rating
[30] = pre-emergence, Preemergence, 0 to 100 scale where 0 is no effect and 100 is complete control, read-out: Ryegrass, Italian plant response rating
[31] = pre-emergence, Preemergence, 0 no effect, 100 complete control, read-out: Plant response rating, Ryegrass, Italian
[32] = post-emergence, Postemergence, visual rating after approx. 10 d, 0 to 100 scale (0 no effect, 100 complete control), read-out: Plant response rating, Wheat
[33] = post-emergence, Postemergence, 0 is no effect, 100 is complete control, read-out: Wheat plant response rating

## Cc1cc(C)c2oc(C)c(-c3c(O)c(C)nn(C)c3=O)c2c1 [Compound 12, 5-hydroxy-2,6-dimethyl-4-(2,5,7-trimethyl-3-benzofuranyl)-3(2H)-pyridazinone]
[1]; [7]
  pest or weed control at 125 g/ha: 0%
[1]; [8]
  pest or weed control at 500 g/ha: 40%
[1]; [9]
  pest or weed control at 125 g/ha: 20%
[1]; [10]
  pest or weed control at 500 g/ha: 80%
Corn (Zea mays); 125 g ai/ha
  Corn plant response rating (crop injury, 0 = no effect, 100 = complete kill) at 125 g/ha: 0%
Corn (Zea mays); [11]
  plant injury at 500 g/ha: 0%
[2]; [12]
  pest or weed control at 125 g/ha: 10%
[2]; [13]
  pest or weed control at 500 g/ha: 70%
[2]; [14]
  pest or weed control at 125 g/ha: 20%
[2]; [15]
  pest or weed control at 500 g/ha: 90%
Kochia (Kochia scoparia); [16]
  pest or weed control at 125 g/ha: 0%
Kochia (Kochia scoparia); [17]
  pest or weed control at 500 g/ha: 60%
Kochia (Kochia scoparia); [18]
  pest or weed control at 125 g/ha: 0%
Kochia (Kochia scoparia); [19]
  pest or weed control at 500 g/ha: 10%
[3]; [20]
  pest or weed control at 125 g/ha: 30%
[3]; [21]
  pest or weed control at 500 g/ha: 50%
[3]; [22]
  pest or weed control at 125 g/ha: 10%
[3]; [23]
  pest or weed control at 500 g/ha: 60%
[4]; [24]
  pest or weed control at 125 g/ha: 10%
[4]; [25]
  pest or weed control at 500 g/ha: 70%
[4]; [26]
  pest or weed control at 125 g/ha: 0%
[4]; [27]
  pest or weed control at 500 g/ha: 30%
[5]; [28]
  pest or weed control at 125 g/ha: 60%
[5]; [29]
  pest or weed control at 500 g/ha: 70%
[5]; [30]
  pest or weed control at 125 g/ha: 20%
[5]; [31]
  pest or weed control at 500 g/ha: 50%
[6]; [32]
  plant injury at 125 g/ha: 0%
[6]; [33]
  plant injury at 500 g/ha: 0%

## CCc1sc2cc(C)cc(C)c2c1-c1c(O)c(C)nn(C)c1=O [Compound 19, 4-(2-ethyl-4,6-dimethylbenzo[b]thien-3-yl)-5-hydroxy-2,6-dimethyl-3(2H)-pyridazinone]
[1]; [7]
  pest or weed control at 125 g/ha: 20%
[1]; [8]
  pest or weed control at 500 g/ha: 80%
[1]; [9]
  pest or weed control at 125 g/ha: 30%
[1]; [10]
  pest or weed control at 500 g/ha: 90%
Corn (Zea mays); 125 g ai/ha
  Corn plant response rating (crop injury, 0 = no effect, 100 = complete kill) at 125 g/ha: 0%
Corn (Zea mays); [11]
  plant injury at 500 g/ha: 0%
[2]; [12]
  pest or weed control at 125 g/ha: 20%
[2]; [13]
  pest or weed control at 500 g/ha: 60%
[2]; [14]
  pest or weed control at 125 g/ha: 0%
[2]; [15]
  pest or weed control at 500 g/ha: 0%
Kochia (Kochia scoparia); [16]
  pest or weed control at 125 g/ha: 0%
Kochia (Kochia scoparia); [17]
  pest or weed control at 500 g/ha: 0%
Kochia (Kochia scoparia); [18]
  pest or weed control at 125 g/ha: 0%
Kochia (Kochia scoparia); [19]
  pest or weed control at 500 g/ha: 0%
[3]; [20]
  pest or weed control at 125 g/ha: 0%
[3]; [21]
  pest or weed control at 500 g/ha: 0%
[3]; [22]
  pest or weed control at 125 g/ha: 0%
[3]; [23]
  pest or weed control at 500 g/ha: 0%
[4]; [24]
  pest or weed control at 125 g/ha: 0%
[4]; [25]
  pest or weed control at 500 g/ha: 0%
[4]; [26]
  pest or weed control at 125 g/ha: 0%
[4]; [27]
  pest or weed control at 500 g/ha: 20%
[5]; [28]
  pest or weed control at 125 g/ha: 0%
[5]; [29]
  pest or weed control at 500 g/ha: 0%
[5]; [30]
  pest or weed control at 125 g/ha: 0%
[5]; [31]
  pest or weed control at 500 g/ha: 0%
[6]; [32]
  plant injury at 125 g/ha: 0%
[6]; [33]
  plant injury at 500 g/ha: 0%

## Cc1nn(C)c(=O)c(-c2c(C)oc3c(C)cccc23)c1O [Compound 9, 4-(2,7-dimethyl-3-benzofuranyl)-5-hydroxy-2,6-dimethyl-3(2H)-pyridazinone]
[1]; [7]
  pest or weed control at 125 g/ha: 10%
[1]; [8]
  pest or weed control at 500 g/ha: 90%
[1]; [9]
  pest or weed control at 125 g/ha: 50%
[1]; [10]
  pest or weed control at 500 g/ha: 100%
Corn (Zea mays); 125 g ai/ha
  Corn plant response rating (crop injury, 0 = no effect, 100 = complete kill) at 125 g/ha: 0%
Corn (Zea mays); [11]
  plant injury at 500 g/ha: 0%
Corn (Zea mays); pre-emergence, Preemergence, 125 g ai/ha, 0 to 100 scale where 0 is no effect and 100 is complete control, read-out: Corn plant response rating
  plant injury at 125 g/ha: 0%
Corn (Zea mays); pre-emergence, Preemergence, 500 g ai/ha, 0 to 100 scale, 0 no effect, 100 complete control
  Corn plant response rating (crop injury, 0 = no effect, 100 = complete kill) at 500 g/ha: 0%
[2]; [12]
  pest or weed control at 125 g/ha: 10%
[2]; [13]
  pest or weed control at 500 g/ha: 90%
[2]; [14]
  pest or weed control at 125 g/ha: 70%
[2]; [15]
  pest or weed control at 500 g/ha: 100%
[3]; [20]
  pest or weed control at 125 g/ha: 0%
[3]; [21]
  pest or weed control at 500 g/ha: 0%
[3]; [22]
  pest or weed control at 125 g/ha: 0%
[3]; [23]
  pest or weed control at 500 g/ha: 0%
[6]; [32]
  plant injury at 125 g/ha: 0%
[6]; [33]
  plant injury at 500 g/ha: 0%
[6]; pre-emergence, Preemergence, 0 to 100 scale where 0 is no effect and 100 is complete control, read-out: Wheat plant response rating
  plant injury at 125 g/ha: 0%
[6]; pre-emergence, Preemergence, 0 no effect, 100 complete control, read-out: Plant response rating, Wheat
  plant injury at 500 g/ha: 0%
